{
  "source": "patent US6994992B1",
  "about": "“Androgen-induced suppressor of cell proliferation and uses thereof” (Trustees of Tufts College, priority 1999, dated 2006)",
  "key": {"AS3": {"system": "AS3", "test": "Expression analysis of the AS3 transcript in LNCaP-FGC cells", "assay_type": "cell-based, human", "experimental": "Briefly, androgen-specific, low-abundance regulatory mRNA sequences expressed during the proliferative shutoff, were selected using the Wang-Brown approach (Wang et al., (1991) Proc. Natl. Acad. Sci. USA 88: 11505–11509). […] LNCaP-FGC cells were treated with 30 nM R1881 to generate proliferative shutoff. R1881 (methyltrienolone) is a synthetic, non-metabolized androgen (Roussell-UCLAF, Romainville, France). Exposure to androgen for 24 hours was required to commit LNCaP-FGC cells to an irreversible proliferative shutoff (Geck et al., (1997) J. Steroid Biochem. Mol. Biol. 63: 211–218). […] LNCaP-FGC cells reversibly arrested by CDHuS were considered as the shutoff-negative control; they were harvested after three days of CDHuS treatment. Total RNA was prepared by the acidic guanidinium-thiocyanate method and polyA RNA was purified by using the FastTrack™ kit (Invitrogen, San Diego, Calif.) (Chomczinsky et al., (1987) Anal. Biochem. 162: 156–159).\nFurthermore, expression of the AS3 transcript positively correlated with proliferation arrest as this gene was expressed only in shutoff-positive cell lines and variants. […] An additional observation that indicates the AS3 gene codes for an inhibitor of the proliferation of prostate cells is the increase of AS3 mRNA levels in the rat prostate when proliferation was arrested by prolonged androgen administration. […]"}, "LNCaP-FGC cells": {"system": "LNCaP-FGC cells", "test": "Proliferation of LNCaP-FGC cells in CDHuS with androgen", "assay_type": "cell-based, human", "text": "Androgens regulate prostate cell numbers and cell proliferation by three major mechanisms: a) inhibition of cell death (apoptosis), b) induction of cell proliferation (Step-1), and c) inhibition of cell proliferation (proliferative shutoff, Step-2) (Isaacs (1985) Prostate 5:545–557; Bruchovsky et al. (1975) Vit. &Horm. 33:61–102; Sonnenschein et al., (1989) Cancer Res. 49:3474–3481). Androgens affect epithelial and stromal cell types which, in turn, interact in the prostate (Hayward et al., (1997) Brit. J. Urol. Suppl. 2: 18–26). […] Proliferation is inhibited in these cells by sex steroid-stripped (charcoal-dextran treated) human serum (CDHuS) (Sonnenschein et al., (1989) Cancer Res. 49:3474–3481). Low androgen concentrations cancel this inhibition (Step-1) and at higher levels, androgens induce an irreversible proliferative shutoff (Step-2) (Sonnenschein et al., (1989) Cancer Res. 49:3474–3481; Soto et al., (1995) Oncology Res. 7: 545–558). During the shutoff period, these cells remain in the G0/G1 phase of the cell cycle. Prostate specific antigen (PSA) induction, however, is still dependent on androgens in these postmitotic cells (Soto et al., (1995) Oncology Res. 7: 545–558). […]"}, "STFX1 cells": {"system": "STFX1 cells", "test": "BrdU incorporation, percent BrdU-labeled nuclei of STFX1 cells containing vector only or AS3 antisense constructs", "assay_type": "cell-based", "conditions": "for percent BrdU-labeled nuclei: 10 nM R1881 for 24 h, BrdU labeling", "text": "In particular, the AS3 antisense gene was cloned into the Clontech pRevTRE™ retroviral vector under the control of a tetracycline sensitive promoter. The promoter has seven repeats of the bacterial tetO operator sequence upstream of the minimal CMV promoter which can be bound by the tetracycline transactivator (tTA). The tTA is a fusion protein between the bacterial tetracycline repressor and the […] herpes virus transactivator. The tetracycline transactivator is sensitive for tetracycline such that, in the presence of tetracycline, the transactivator cannot bind the tetracycline promoter so the transgene is “off” and conversely, in the absence of tetracycline, the gene is “on” (i.e., the Tet-Off™ system; see, e.g., Clontech pRevTRE™ manual for further details).\nThe supernatants containing the highest amounts of virions were then used to infect the STFX1 cell line, a derivative of the MCF7-AR1 that has a tetracycline transactivator gene stably integrated. During the cloning and selection procedures, cells were maintained in 1 μg/mL of tetracycline to suppress the expression of the inducible transgenes.\nIn order to characterize the cell lines expressing AS3 antisense and the “control” cell lines having vector without insert, cells were incubated in the presence (i.e., the transgene is off) and absence of tetracycline (i.e., the transgene is on) and, after 36 hours, assayed for transcript expression using RT-PCR under standard conditions,\nTo determine the affect of androgen induced AS3 suppression of cellular growth, cells lines showing high levels of inducible AS3 antisense expression were chosen for further study. Cells were seeded onto coverslips in standard growth medium and allowed to grow for 5 days in the presence of 10 μg/ml tetracycline (hereafter “tet”). Then, vehicle or 10 nM of the androgen R1881 was added. Finally, 24 hours later, the cells were treated with 10 μg/ml of bromodeoxyuridine (BrdU) for several hours to measure the percent of cells actively proliferating as a function of BrdU incorporation during DNA replication. The cells were then fixed, Hoechst stained, and the percent number of BrdU-labeled cells was determined using immunocytochemistry (using standard BrdU labeling regents and protocols from Boheringer)."}, "[1]": {"conditions": "CDHuS supplemented with 30 pM R1881"}},
  "data": [
    {"smiles": "C[C@]1(O)CC[C@H]2[C@@H]3CCC4=CC(=O)CCC4=C3C=C[C@@]21C", "note": "[R1881, methyltrienolone]", "values": [
      {"measurement": "AS3 expression", "setting": "AS3; 0.3–30 nM of R1881", "result": "strongly induced"},
      {"measurement": "AS3 expression", "setting": "AS3; [1]", "result": "not expressed"},
      {"measurement": "proliferation of LNCaP-FGC cells", "setting": "LNCaP-FGC cells; 0.3–30 nM of R1881", "result": "inhibited from proliferating"},
      {"measurement": "proliferation of LNCaP-FGC cells", "setting": "LNCaP-FGC cells; [1]", "result": "proliferated maximally"},
      {"measurement": "proliferative shutoff", "setting": "STFX1 cells; AS3 levels reduced by antisense expression in the absence of tetracycline (sample 8 vs sample 6), 10 nM R1881", "result": "no longer induces a proliferative shutoff"},
      {"measurement": "percent BrdU-labeled nuclei", "setting": "STFX1 cells; STFX1 cells with AS3 antisense construct, +tet (antisense uninduced)", "result": "9.7 +/−0.6%"},
      {"measurement": "percent BrdU-labeled nuclei", "setting": "STFX1 cells; STFX1 cells with AS3 antisense construct, −tet (antisense expressed)", "result": "29.1 +/−1.6%"},
      {"measurement": "percent BrdU-labeled nuclei", "setting": "STFX1 cells; STFX1 cells with empty vector, +tet (10 μg/ml)", "result": "9.4 +/−1.7%"},
      {"measurement": "percent BrdU-labeled nuclei", "setting": "STFX1 cells; STFX1 cells with empty vector, −tet (vector induced)", "result": "10.7 +/−0.9%"},
      {"measurement": "number of proliferating cells in S phase", "setting": "STFX1 cells; cellular levels of AS3 unaffected (samples 2, 4, 6) compared to sample 1 without androgen, 10 nM R1881", "result": "significant decrease"}
    ]}
  ]
}
